Where two headings read alike, the source gives them in different places.
Key:
[1] = system: lipopolysaccharide (LPS)-initiated secretion of the cytokine IL-8 in the human THP-1 monocyte cell line; assay: Inhibition of LPS-initiated IL-8 secretion in THP-1 cells; assay type: cell-based; conditions: for IC50 / Emax: Homo sapiens; for IC50: read-out: IL8 IC50; for Emax: read-out: IL8 eff; for Diss. (TATEC50/IL8IC50): ratio TAT EC50 / IL8 IC50
[2] = system: tyrosine aminotransferase (TAT); assay: TAT induction in vitro; assay type: cell-based; conditions: for Emax: read-out: TAT eff
[3] = THP-1, prior-art compounds (WO2005/034939)
[4] = prior-art compounds (WO2005/034939)
[5] = THP-1, inventive stereoisomers, efficacy of IL-8 inhibition
[6] = inventive stereoisomers, LPS-initiated IL-8 secretion, THP-1 cells
[7] = inventive stereoisomers, efficacy of TAT induction
[8] = inventive stereoisomers, in vitro TAT induction
[9] = inventive stereoisomers, in vitro TAT induction, cells printed in μM

Compound	IC50 [1, 3]	Emax [1, 3]	Diss. (TATEC50/IL8IC50) [1, 4]	EC50 [2, 4]	Emax [2, 4]	Emax [1, 5]	IC50 [1, 6]	Diss. (TATEC50/IL8IC50) ([1]; inventive stereoisomers)	Emax [2, 7]	EC50 [2, 8]	EC50 [2, 9]
CC1(C)CC(O)(C(F)(F)F)C(Nc2cccc3[nH]c(=O)ccc23)c2ccc(F)c(O)c21 (centres unmarked) [reference compound]	14 nM	68%	0.27	0.0038 µM	92%						
CC[C@@H]1C[C@](O)(C(F)(F)F)[C@@H](Nc2cccc3c(=O)[nH]ccc23)c2cc(Cl)c(C)c(O)c21 [Example 121B, 5-{[(1S,2R,4R)-7-chloro-2,5-Dihydroxy-6-methyl-4-ethyl-2-(trifluoromethyl)-1,2,3,4-tetrahydronaphthalen-1-yl]amino}-2H-quinolin-1-one]						88%	3.7 nM	81	99%	0.3 µM	
Cc1ncc2c(NC3c4cc(C)c(F)c(O)c4C(C)(C)CC3(O)C(F)(F)F)ccc(F)c2n1 (centres unmarked) [reference compound]	40 nM	79%	0.16	0.0065 µM	100%						
CC[C@@H]1C[C@](O)(C(F)(F)F)[C@@H](Nc2cccc3nc(C)ncc23)c2ccc(F)c(O)c21 [Example 29A, (5α,6α,8β)-8-Ethyl-2-fluoro-5-[(2-methylquinazolin-5-yl)amino]-6-(trifluoromethyl)-5,6,7,8-tetrahydronaphthalene-1,6-diol]						77%	16 nM	7.5	95%	0.12 µM	
Cc1ncc2c(NC3c4ccc(Cl)c(O)c4C(C)(C)CC3(O)C(F)(F)F)ccc(F)c2n1 (centres unmarked) [reference compound]	22 nM	73%	0.14	0.003 µM	98%						
CC[C@H]1C[C@](O)(C(F)(F)F)[C@@H](Nc2cc(F)cc3[nH]c(=O)ccc23)c2ccc(Cl)c(O)c21 (stereo in doubt) [Example 101, 5-{[(1α,2α,4α)-6-Chloro-2,5-Dihydroxy-4-ethyl-2-(trifluoromethyl)-1,2,3,4-tetrahydronaphthalen-1-yl]amino}-7-fluoro-1H-quinolin-2-one]						92%	1.8 nM	41	97%	0.074 µM	
CC[C@@H]1C[C@](O)(C(F)(F)F)[C@@H](Nc2cccc3[nH]c(=O)ccc23)c2cc(F)c(F)c(O)c21 [Example 54, 5-{[(1α,2α,4β)-4-ethyl-6,7-difluoro-2,5-dihydroxy-2-(trifluoromethyl)-1,2,3,4-tetrahydronaphthalen-1-yl]amino}quinolin-2(1H)-one]						78%	5.7 nM	86	76%	0.49 µM	
Cc1ncc2c(NC3c4cc(Cl)c(F)c(O)c4C(C)(C)CC3(O)C(F)(F)F)cc(F)c(F)c2n1 (centres unmarked) [reference compound]	31 nM	96%	0.14	0.0042 µM	100%						
CCC1CC(O)(C(F)(F)F)C(Nc2cccc3[nH]c(=O)ccc23)c2cc(F)cc(O)c21 (centres unmarked) [Example 75, 5-{[4-Ethyl-7-fluoro-2,5-dihydroxy-2-(trifluoromethyl)-1,2,3,4-tetrahydronaphthalen-1-yl]amino}quinolin-2(1H)-one]						68%	7.1 nM	16.9	89%	0.12 µM	
CC[C@H]1C[C@](O)(C(F)(F)F)[C@@H](Nc2cccc3[nH]c(=O)ccc23)c2ccc(F)c(O)c21 (stereo in doubt) [Example 43, 5-{[(1α,2α,4α)-4-Ethyl-6-fluoro-2,5-dihydroxy-2-(trifluoromethyl)-1,2,3,4-tetrahydronaphthalen-1-yl]amino}quinolin-2(1H)-one]						88%	12 nM	3.6	100%	0.043 µM	
CCC1CC(O)(C(F)(F)F)C(Nc2cccc3nc(C)ccc23)c2ccc(F)c(O)c21 (centres unmarked) [reference compound]	220 nM	69%	0.64	0.14 µM	88%						
CC[C@@H]1C[C@](O)(C(F)(F)F)[C@@H](Nc2cc(F)cc3nc(C)ncc23)c2ccc(F)c(O)c21 [Example 30A, (5S,6R,8R)-8-Ethyl-2-fluoro-5-[(7-fluoro-2-methylquinazolin-5-yl)amino]-6-(trifluoromethyl)-5,6,7,8-tetrahydronaphthalene-1,6-diol]						89%	6.6 nM	2.8	95%	0.017 µM	
Cc1ccc2c(N[C@H]3c4ccc(F)c(O)c4[C@H](C)C[C@]3(O)C(F)(F)F)cccc2n1 [Example 1]						79%	22 nM	45.5	62%		1 µM
CC[C@@H]1C[C@](O)(C(F)(F)F)[C@@H](Nc2cc(F)cc3nc(C)ncc23)c2cc(F)c(F)c(O)c21 [Example 51A, (5α,6α,8β)-8-Ethyl-2,3-difluoro-5-[(7-fluoro-2-methylquinazolin-5-yl)amino]-6-(trifluoromethyl)-5,6,7,8-tetrahydronaphthalene-1,6-diol]						72%	13 nM	11.5	81%	0.15 µM	
Cc1ccc2c(NC3c4ccc(F)c(O)c4C(C(C)C)CC3(O)C(F)(F)F)cccc2n1 (centres unmarked) [Example 65, 2-Fluoro-5-[(2-methylquinolin-5-yl)amino]-8-(Prop-2-yl)-6-(trifluoromethyl)-5,6,7,8-tetrahydronaphthalene-1,6-diol]						58%	38 nM	26.3	73%		1 µM
CC1(C)CC(O)(C(F)(F)F)C(Nc2cc(F)cc3[nH]ncc23)c2ccc(F)c(O)c21 (centres unmarked) [reference compound]	20 nM	88%	0.22	0.0043 µM	100%						

— patent publication US7880042B2, “Tetrahydronaphthalene derivatives, methods for the production thereof, and the use thereof as antiphlogistics” (Bayer Schering Pharma AG, priority 2006, dated 2011)
